Among the data in patent publication US10287269B2, “Pyrazolyl pyrimidinone compounds as PDE2 inhibitors” (Merck Sharp & Dohme Corp., priority 2015, dated 2019) are Ki values, retold here.

The term Ki denotes a dissociation constant, usually derived from enzyme kinetics or from competition with a known ligand.

The first assay deals with T1, human PDE2A1 (Homo sapiens, UniProt O00408).
T1 construct: GST; purchased BPS Bioscience (San Diego, Calif.) 60020; host or cells: insect cells
T1 sequence (O00408 1-920 isoform O00408-2): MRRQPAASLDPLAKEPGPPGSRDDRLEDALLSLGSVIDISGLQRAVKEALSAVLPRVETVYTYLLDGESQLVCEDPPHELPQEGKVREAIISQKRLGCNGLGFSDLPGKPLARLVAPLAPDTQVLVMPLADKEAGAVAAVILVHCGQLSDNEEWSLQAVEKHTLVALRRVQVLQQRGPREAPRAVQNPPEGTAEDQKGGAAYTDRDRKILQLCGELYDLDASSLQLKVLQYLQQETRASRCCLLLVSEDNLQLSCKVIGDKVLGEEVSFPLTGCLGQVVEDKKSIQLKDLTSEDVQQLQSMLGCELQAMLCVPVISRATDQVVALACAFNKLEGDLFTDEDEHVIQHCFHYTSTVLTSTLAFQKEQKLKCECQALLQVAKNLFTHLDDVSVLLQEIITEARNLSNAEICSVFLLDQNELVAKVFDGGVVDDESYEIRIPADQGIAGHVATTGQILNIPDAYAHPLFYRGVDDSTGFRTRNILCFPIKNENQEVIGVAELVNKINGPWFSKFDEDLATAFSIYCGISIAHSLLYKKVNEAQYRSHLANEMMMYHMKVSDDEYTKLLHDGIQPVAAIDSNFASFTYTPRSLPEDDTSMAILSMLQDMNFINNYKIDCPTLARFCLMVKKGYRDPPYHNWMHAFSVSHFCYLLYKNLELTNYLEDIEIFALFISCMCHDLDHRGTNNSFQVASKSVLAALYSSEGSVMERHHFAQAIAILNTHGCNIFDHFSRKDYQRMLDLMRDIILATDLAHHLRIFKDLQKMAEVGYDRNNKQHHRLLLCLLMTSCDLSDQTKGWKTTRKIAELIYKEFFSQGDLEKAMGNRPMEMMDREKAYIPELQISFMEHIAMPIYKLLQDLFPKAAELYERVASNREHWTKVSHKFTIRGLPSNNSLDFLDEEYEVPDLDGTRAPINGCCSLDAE
As to the kind of experiment: PDE2 IMAP FP inhibition assay, human enzyme (PDE selectivity panel format). It counts as biochemical. Particulars: Lab A; read-out: Human PDE2 Ki (nM) Lab A. The method, then:
Selectivity for PDE2, as compared to other PDE families, was assessed using the IMAP® technology. Human PDE10A2 enzyme was prepared from cytosolic fractions of transiently transfected HEK cells. All other PDE's were GST Tag human enzyme expressed in insect cells and were obtained from BPS Bioscience (San Diego, Calif.): PDE1A (Cat#60010), human PDE2A1 (Cat#60020), PDE3A (Cat#60030), PDE4A1A (Cat#60040), PDE5A1 (Cat#60050), PDE6C (Cat#60060), PDE7A (Cat#60070), PDE8A1 (Cat#60080), PDE9A2 (Cat#60090), PDE11A4 (Cat#60110).
Assays for PDE 1 through 11 were performed in parallel at room temperature in 384-well microtiter plates with an incubation volume of 20.2 μL. Solutions of test compounds were prepared in DMSO and serially diluted with DMSO to yield 30 μL of each of ten solutions differing by 3-fold in concentration, at 32 serial dilutions per plate. […] A Labcyte POD 810 (Labcyte, Sunnyvale, Calif.) was used to dispense 200 nL from each well of the titration plate to make eleven copies of the assay plate for each titration, one copy for each PDE enzyme. A solution of each enzyme (dilution from aliquots, sufficient to produce 20% substrate conversion) and a separate solution of FAM-labeled cAMP or FAM-labeled cGMP from Molecular Devices (Sunnyvale, Calif., product # R7506 or cGMP#R7508), at a final concentration of 50 nM were made in the assay buffer (10 mM Tris HCl, pH 7.2, 10 mM MgCl2, 0.05% NaN3 0.01% Tween-20, and 1 mM DTT). Note that the substrate for PDE2 is 50 nM FAM cAMP containing 1000 nM of cGMP. The enzyme and the substrate were then added to the assay plates in two consecutive additions of 10 μL and then shaken to mix. The reaction was allowed to proceed at room temperature for 60 minutes. A binding solution was then made from the kit components, comprised of 80% Solution A, 20% Solution B and binding reagent at a volume of 1/600 the total binding solution. The enzymatic reaction was stopped by addition of 60 μL of the binding solution to each well of the assay plate. The plates were sealed and shaken for 10 seconds. The plates were incubated at room temperature for one hour, then the parallel and perpendicular fluorescence was measured using a Tecan Genios Pro plate reader (Tecan, Switzerland). The apparent inhibition constants for the compounds against all 11 PDE's was determined from the parallel and perpendicular fluorescent readings as described for PDE10 FP assay using the following apparent KM values for each enzyme and substrate combination: PDE1A (FAM cGMP) 70 nM, human PDE2A1 (FAM cAMP) 10,000 nM, PDE3A (FAM cAMP) 50 nM, PDE4A1A (FAM cAMP) 1500 nM, PDE5A1 (FAM cGMP) 400 nM, PDE6C (FAM cGMP) 700 nM, PDE7A (FAM cAMP) 150 nM, PDE8A1 (FAM cAMP) 50 nM, PDE9A2 (FAM cGMP) 60 nM, PDE10A2 (FAM cAMP) 150 nM, PDE11A4 (FAM cAMP) 1000 nM. The intrinsic PDE2 inhibitory activity of a compound which may be used in accordance with the present invention may be determined by these assays. […]
Take `COc1ccc(Cc2nc(-c3cnn(C(C)c4ccc(S(F)(F)(F)(F)F)cc4)c3)cc(=O)[nH]2)cc1OC` (single isomer, unassigned) [Example 64, (R)- or (S)-2-(3,4-dimethoxybenzyl)-6-(1-(1-(4-(pentafluorosulfanyl)phenyl)ethyl)-1H-pyrazol-4-yl)pyrimidin-4(3H)-one]: the Ki was found to be 7.2 nM.
Still for that read-out and setting: with `CC(c1ccc(C(F)(F)F)cc1F)n1cc(-c2cc(=O)[nH]c(Cc3ccccc3)n2)cn1` (stereo not shown) [Example 35, 2-benzyl-6-(1-(1-(2-fluoro-4-(trifluoromethyl)phenyl)ethyl)-1H-pyrazol-4-yl)pyrimidin-4(3H)-one] the figure was 60.4 nM.
Consider `Cc1nc(-c2cnn(C(C)c3ccc(C(F)(F)F)cc3F)c2)cc(=O)[nH]1` (single isomer, unassigned) [Example 136, (S)- or (R)-6-(1-(1-(2-fluoro-4-(trifluoromethyl)phenyl)ethyl)-1H-pyrazol-4-yl)-2-methylpyrimidin-4(3H)-one], for which the Ki amounted to 19.1 nM.
With `Cc1nc(-n2cc([C@H](C)c3ccc(C(F)(F)F)cc3)cn2)cc(=O)[nH]1` (single isomer, unassigned) [Example 4], the Ki was 18.2 nM.
On the same count and under the same terms, to `COc1cccc(Cc2nc(-c3cnn(C(C)c4ccc(C(F)(F)F)cc4F)c3)cc(=O)[nH]2)c1` (single isomer, unassigned) [Example 141, (S)- or (R)-6-(1-(1-(2-fluoro-4-(trifluoromethyl)phenyl)ethyl)-1H-pyrazol-4-yl)-2-(3-methoxybenzyl)pyrimidin-4(3H)-one] belongs 17.3 nM.
On the same count and under the same terms, to `CC(C)c1nc(-c2cnn(C(C)c3ccc(C(F)(F)F)cc3F)c2)cc(=O)[nH]1` (stereo not shown) [Example 9, 6-(1-(1-(2-Fluoro-4-(trifluoromethyl)phenyl)ethyl)-1H-pyrazol-4-yl)-2-isopropylpyrimidin-4(3H)-one] belongs 104 nM; to `Cc1nc(-c2cnn(C(C)c3ccc(C4CC4)cc3F)c2)cc(=O)[nH]1` (single isomer, unassigned) [Example 91, (R)- or (S)-6-(1-(1-(4-cyclopropyl-2-fluorophenyl)ethyl)-1H-pyrazol-4-yl)-2-methylpyrimidin-4(3H)-one], 48.4 nM; to `COc1ccc(Cc2nc(-c3cnn(C(C)c4ccc(S(F)(F)(F)(F)F)cc4)c3)cc(=O)[nH]2)cc1OC` (single isomer, unassigned) [Example 65, (S)- or (R)-2-(3,4-dimethoxybenzyl)-6-(1-(1-(4-(pentafluorosulfanyl)phenyl)ethyl)-1H-pyrazol-4-yl)pyrimidin-4(3H)-one 4(3H)-one], 22 nM.
`Cc1nc(-c2cnn(C(C)c3ccc(C(F)(F)F)cc3Cl)c2)cc(=O)[nH]1` (single isomer, unassigned) [Example 83, (R)- or (S)-6-(1-(1-(2-chloro-4-(trifluoromethyl)phenyl)ethyl)-1H-pyrazol-4-yl)-2-methylpyrimidin-4(3H)-one]: the Ki is 5.1 nM.
On to `CCc1nc(-c2cnn(C(C)c3ccc(C(F)(F)F)cc3F)c2)cc(=O)[nH]1` (single isomer, unassigned) [Example 85, (R)- or (S)-2-ethyl-6-(1-(1-(2-fluoro-4-(trifluoromethyl)phenyl)ethyl)-1H-pyrazol-4-yl)pyrimidin-4(3H)-one], for which the Ki was 10.4 nM.
As to `CCc1nc(-c2cnn(C(C)c3ccc(C(F)(F)F)cc3F)c2)cc(=O)[nH]1` (stereo not shown) [Example 36, 2-ethyl-6-(1-(1-(2-fluoro-4-(trifluoromethyl)phenyl)ethyl)-1H-pyrazol-4-yl)pyrimidin-4(3H)-one], the Ki is 17.2 nM.
On to `Cc1ccc(C(C)n2cc(-c3cc(=O)[nH]c(C)n3)cn2)cc1` (stereo not shown) [Example 153, 2-methyl-6-(1-(1-(p-tolyl)ethyl)-1H-pyrazol-4-yl)pyrimidin-4(3H)-one], for which the Ki came out at 1240 nM.

Still in this assay, the particulars now being: Lab B; read-out: Human PDE2 Ki (nM) Lab B.
With `COc1ccc(Cc2nc(-c3cnn(C(C)c4ccc(S(F)(F)(F)(F)F)cc4)c3)cc(=O)[nH]2)cc1OC` (single isomer, unassigned) [Example 64, (R)- or (S)-2-(3,4-dimethoxybenzyl)-6-(1-(1-(4-(pentafluorosulfanyl)phenyl)ethyl)-1H-pyrazol-4-yl)pyrimidin-4(3H)-one], the Ki is 3.3 nM.
With `COc1ccc(Cc2nc(-n3ccc(C(C)c4ccc(C(F)(F)F)cc4)n3)cc(=O)[nH]2)cc1OC` (single isomer, unassigned) [Example 133, (R)- or (S)-2-(3,4-dimethoxybenzyl)-6-(3-(1-(4-(trifluoromethyl)phenyl)ethyl)-1H-pyrazol-1-yl)pyrimidin-4(3H)-one], the Ki came out at 38.5 nM.
In the case of `COc1ccc(Cc2nc(-n3ccc(C(C)c4ccc(C(F)(F)F)cc4)n3)cc(=O)[nH]2)cc1OC` (single isomer, unassigned) [Example 134, (R)- or (S)-2-(3,4-dimethoxybenzyl)-6-(3-(1-(4-(trifluoromethyl)phenyl)ethyl)-1H-pyrazol-1-yl)pyrimidin-4(3H)-one], the Ki was 66.6 nM.
Turning to `COc1ccc(Cc2nc(-c3cnn(C(C)c4ccc(C(F)(F)F)cc4F)c3)cc(=O)[nH]2)cc1OC` (single isomer, unassigned) [Example 66, (R)- or (S)-2-(3,4-dimethoxybenzyl)-6-(1-(1-(2-fluoro-4-(trifluoromethyl)phenyl)ethyl)-1H-pyrazol-4-yl)pyrimidin-4(3H)-one], the Ki was found to be 0.5 nM.
Turning to `Cc1nc(-n2cc([C@]3(c4ccc(C(F)(F)F)cc4)CCCO3)cn2)cc(=O)[nH]1` (single isomer, unassigned) [Example 22], the Ki stood at 31.5 nM.
Consider `Cc1nc(-c2cnn(C(C)c3ccc(C(F)(F)F)cc3F)c2)cc(=O)[nH]1` (single isomer, unassigned) [Example 136, (S)- or (R)-6-(1-(1-(2-fluoro-4-(trifluoromethyl)phenyl)ethyl)-1H-pyrazol-4-yl)-2-methylpyrimidin-4(3H)-one], for which the Ki was 7.6 nM.
Consider `Cc1nc(-n2cc([C@H](C)c3ccc(C(F)(F)F)cc3)cn2)cc(=O)[nH]1` (single isomer, unassigned) [Example 4], for which the Ki turned out to be 14.4 nM.
Take `Cc1nc(-c2ccn(C(C)c3ccc(C(F)(F)F)cc3)n2)cc(=O)[nH]1` (single isomer, unassigned) [Example 77, (R)- or (S)-2-methyl-6-(1-(1-(4-(trifluoromethyl)phenyl)ethyl)-1H-pyrazol-3-yl)pyrimidin-4(3H)-one]: the Ki worked out at 441 nM.
As to `Cc1nc(-n2cc(C3(C)OCc4cc(C(F)(F)F)ccc43)cn2)cc(=O)[nH]1` (single isomer, unassigned) [Example 27], the Ki was 66.6 nM.
The same measure, in the same setting: with `COc1ccc(Cc2nc(-c3cnn(C(C)c4ccc(S(F)(F)(F)(F)F)cc4)c3)cc(=O)[nH]2)cc1OC` (single isomer, unassigned) [Example 65, (S)- or (R)-2-(3,4-dimethoxybenzyl)-6-(1-(1-(4-(pentafluorosulfanyl)phenyl)ethyl)-1H-pyrazol-4-yl)pyrimidin-4(3H)-one 4(3H)-one] the figure was 8.5 nM; with `Cc1nc(-n2cc([C@H](CO)c3ccc(C(F)(F)F)cc3F)cn2)cc(=O)[nH]1` (single isomer, unassigned) [Example 19], 85 nM.
With `Cc1nc(-c2ccn(C(C)c3ccc(C(F)(F)F)cc3)n2)cc(=O)[nH]1` (single isomer, unassigned) [Example 78, (S)- or (R)-2-methyl-6-(1-{(1R)-1-[4-(trifluoromethyl)phenyl]ethyl}-1H-pyrazol-3-yl)pyrimidin-4(3H)-one], the Ki was 255 nM.
Consider `Cc1nc(-n2cc(C3(C)OCc4cc(C(F)(F)F)ccc43)cn2)cc(=O)[nH]1` (single isomer, unassigned) [Example 28], for which the Ki came out at 72 nM.
As to `Cc1nc(-c2cnn(C(C)c3ccc(C(F)(F)F)cc3F)c2)cc(=O)[nH]1` (single isomer, unassigned) [Example 135, (R)- or (S)-6-(1-(1-(2-fluoro-4-(trifluoromethyl)phenyl)ethyl)-1H-pyrazol-4-yl)-2-methylpyrimidin-4(3H)-one], the Ki worked out at 91.9 nM.
As for `Cc1nc(-c2cnn(C(C)c3ccc(C(F)(F)F)cc3)c2)cc(=O)[nH]1` (stereo not shown) [Example 126, 2-methyl-6-(1-(1-(4-(trifluoromethyl)phenyl)ethyl)-1H-pyrazol-4-yl)pyrimidin-4(3H)-one], the Ki stood at 233 nM.
`Cc1nc(-c2cnn(C(C)c3ccc(C(F)(F)F)cc3)c2C)cc(=O)[nH]1` (single isomer, unassigned) [Example 82, (S)- or (R)-2-methyl-6-(5-methyl-1-{(1R)-1-[4-(trifluoromethyl)phenyl]ethyl}-1H-pyrazol-4-yl)pyrimidin-4(3H)-one]: the Ki was 184 nM.
